These results are taken from patent US20260027096A1, “PHD INHIBITORS” (Oxford University Innovation Limited, priority 2023, published 2026).

Data set [1] has as its system MV411 AML cells in NBSGW recipient mice. In words: MV411 xenotransplantation in NBSGW mice, combination with Venetoclax. It is filed as in vivo, mouse. The conditions noted are these: 14 days treatment; IOX5 i.p. twice daily, Venetoclax o.g. once daily. As for the experimental part: 14 days following transplantation, recipient mice were treated with IOX5 (68, example 46), Venetoclax or vehicle control. Dosing regimen consisted of 2× daily via i.p. injection (IOX5 (68, example 46) or vehicle) and/or 1× daily via o.g. (Venetoclax or vehicle). […] (E-G) Percentage of human CD45+CD33+CD14+ cells in the BM, spleen and liver, respectively (n=5). (H) Survival curve of mice treated with IOX5 (68, example 46), Venetoclax, IOX5 (68, example 46)+Venetoclax or vehicle control (n=6-7). (I-J) Proliferation and Annexin-V+DAPI+analyses, respectively, of THP-1 cells treated with Ven, IOX5, FIH inhibitor (FIHi; DM-NOFD), IOX5 (68, example 46)+FIHi, IOX5 (68, example 46)+Ven, FIHi+Ven, IOX5 (68, example 46)+FIHi+Ven or vehicle control (n=6). Statistical significance represented as in (A-B). Data represent mean±SEM; *p<0.05; ** p<0.01; *** p<0.001; **** p<0.0001.
100,000 THP-1 cells, 100,000 OCI-AM3 cells or 100,000 MV411 cells (for combination experiments) were tail vein injected into non-irradiated 10-to 12-week-old mixed gender NBSGW mice and began drug treatment 14 days after transplantation. […] Mice were culled 5 weeks after transplantation.
Mice in combination treatment experiments with Venetoclax (ABT-199) (MCE) were dosed once daily with 100 mg/kg via oral gavage (o.g.).
Further to findings in Example 170, the efficacy of IOX5 (68, example 46)+Venetoclax combination in vivo was investigated (FIG. 38D). MV411 AML cells were engrafted (with MLL-AF4 and FLT3-ITD mutation) and the recipient mice were treated with a vehicle, IOX5 (68, example 46), Venetoclax, and a combination of IOX5 (68, example 46)+Venetoclax.

Data set [2] relates to Meis1/Hoxa9-transformed AML cells lacking both Hif1α and Hif2α and control cells. Nature of the data set: Proliferation of control and Hif1α/Hif2α-deficient Meis1/Hoxa9 AML cells. The format is cell-based, mouse. As to conditions: 50 μM.
Excerpt: Viable cells were counted by trypan blue exclusion at the indicated time points.
To investigate whether HIF-α mediates the anti-leukaemic effects of PHD inhibition, Meis1/Hoxa9-transformed AML cells lacking both Hif1α and Hif2α and control cells were employed (Vukovic et al., 2015).
Data set [3] concerns OCI-AML3 cells in NBSGW recipient mice. Nature of the data set: OCI-AML3 xenotransplantation in NBSGW mice. The conditions noted are these: i.p. twice daily for 21 days. The format is in vivo, mouse. From the text:
(A) 100,000 THP-1 cells were transplanted into NBSGW recipient mice. […] (B-C) Percentage of human CD45+CD33+ and human CD45+CD14+ cells in the BM and spleen, respectively (n=4-5). (D) 100,000 OCI-AML3 cells were transplanted into NBSGW recipient mice. […] (E) Percentage of human CD45+CD33+CD14+ cells in the liver, BM and PB, respectively (n=3-7). (F) 2,000 LSK cells from iMLL-AF9;Control mice were sorted and transplanted into irradiated recipient mice. […] (H) LDA in secondary recipients transplanted with indicated doses of CD45.2+BM cells from primary recipients (n=9-10 per dose). (I) Plot showing Poisson statistical analysis. Circles represent the percentages of negative mice for each cell dose, triangles represent any data values with zero negative responses. Solid lines indicate the best-fit linear model, and dotted lines represent 95% CIs. LSC frequencies were calculated using the ELDA software 121. (J) Steady-state analyses of 8-to 10-week-old C57B16 mice treated with IOX5 or vehicle control 2× daily via i.p. injection for 14 days (n=5-7). (K) PB counts (n=6). (L) Total BM cellularity (n=5-9). (M) Total numbers of HSC, MPP, HPC-1 and HPC-2 populations (n=5-7). Data represent mean±SEM; * p<0.05; ** p<0.01; *** p<0.001; **** p<0.0001. […]

Data set [4] in a line: Steady-state haematopoiesis analyses in C57B16 mice. The format is in vivo, mouse. The conditions noted are these: 30 mg/kg i.p. twice daily for 14 days. As for the experimental part: For steady-state analyses, 8-to 10-week-old mixed gender C57B16 mice were injected intraperitoneally twice daily for 14 days with 30 mg/kg IOX5 or vehicle control. Mice were bled before and after treatment, and culled 12 hrs after the final dosing.
Given that Dap has been deemed safe in murine and human studies^37,72,78, the impact of IOX5 (68, example 46) on normal hematopoiesis was then examined.

Data set [5] has as its system iMLL-AF9 AML cells. In words: RNA-seq analysis of iMLL-AF9 AML cells. It is filed as cell-based, mouse. As for the experimental part:
Total RNA was extracted from 500,000 leukaemic cells using RNeasy Plus Universal Mini Kit (QIAGEN, Cat. No. 73404) following the manufacture's protocol. The RNA integrity number (RIN) was determined by High Sensitivity RNA Screen Tape analysis (Agilent, Cat. No. 5067) and all RIN was >8. High sensitivity Libraries for RNA-seq were prepared from 500 ng of total RNA using the NEBNext® Ultra™ II Directional RNA Library Prep Kit for Illumina® (NEB, Cat. No. E7760) with NEBNext Poly(A) mRNA Magnetic Isolation Module (NEB, Cat. No. E7490) following the manufacture's protocol. Nine cycles of PCR were performed to amplify libraries and the pooled library was sequenced on illumina NextSeq 500 with 85 bp single-end mode at EMBL GeneCore facility.
For analysis of differentially expressed genes, adapters were trimmed with cutadapt (version 1.18) using options: -a […]-m 50, and processed reads were mapped to GRCm38 genome_tran (release 84) with HISAT2 (version 2.2.1 (Nature Methods volume 12, pages 357-360 (2015), https://www.nature.com/nmeth)) using following option: —qc-filter. Mapped reads per gene were counted with htseq-count (HTSeq version 2.0.1 (Bioinformatics, Volume 38, Issue 10, 15 May 2022, Pages 2943-2945)) providing GTF file and differentially expressed genes were analysed using DESeq2 (version 1.30.1). […]

Turning to `O=C(NCC1CCC(C(F)(F)F)CC1)c1c[nH]c(-n2cccn2)cc1=O` (stereo not drawn) [IOX5], in data set [1], the leukaemic burden result is on record as “decreased leukaemic burden” and the “survival of recipient mice” value is listed as “extended survival of the recipient mice”. The “proliferation of control vs Hif1α/Hif2α-deficient cells” value in data set [2] is “control AML cells manifest substantially reduced proliferation, while Hif½αDKO cells are refractory”. Moreover, the leukaemic burden entry in data set [3] is given as “significantly reduced leukaemic burden”. Further, in data set [4], the HSPC compartment result is “no significant defects in the HSPC compartment”; the “differentiated PB, BM or spleen compartments” value is “no detrimental impact on the differentiated PB, BM or spleen compartments”; the erythropoiesis entry is “enhanced erythropoiesis”. For the same compound, the “gene set enrichment analysis (GSEA) of deregulated genes” value in data set [5] (50 μM vs control) was “significant up-regulation of hypoxia signature, HIF-1 signalling, and activation of HIF-inducible pathways”. The BNIP3 transcript expression result in data set [5] (murine cells) is on record as “significantly upregulated”.
